The values below are quoted from earlier work in US20210401795A1, “Compressible Cannabinoid Pharmaceutical Composition” (Imbucanna, Inc., priority 2019, published 2021).

For series [1] the following is noted: pure CBD, twice-daily dosages, pediatric patients; ranging from total seizure freedom to the stated reductions.
Assay in series [2]: not given
The source holds these as a separate data set.

For the compound `C=C(C)[C@@H]1CCC(C)=C[C@H]1c1c(O)cc(CCCCC)cc1O` [CBD, cannabidiol], the solubility in water result is “poorly soluble in water”. For the same compound, the seizure reduction in series [1] is recorded as 25-80%.

Take `CCCCCc1cc(O)c2c(c1)OC(C)(C)[C@@H]1CCC(C)=C[C@@H]21` [Dronabinol, (−)-trans-Δ^9-tetrahydrocannabinol]: in series [2] (after administration), the “duration of appetite stimulant effect” value is not below 24 h. Also, in series [2] (after oral administration), the “duration of action for psychoactive effects” value is 4 to 6 h, the onset of action was 0.5 to 1 h and the peak effect was 2 to 4 h.
